We go through three compounds from ChEMBL document CHEMBL1795320, “Synthesis and antibacterial activity of novel 4″-O-benzimidazolyl clarithromycin derivatives” (2011).

Values after ≈ are worked out from the molar mass of the structure shown.

What all share (format): functional
Test [1] concerns Streptococcus pneumoniae. The experiment in a line: Ratio of erythromycin MIC to compound MIC for erythromycin-resistant Streptococcus pneumoniae A22072 expressing mef gene.
Test [2] has as its system Streptococcus pneumoniae. Put plainly: Antibacterial activity against erythromycin-resistant Streptococcus pneumoniae A22072 expressing mef gene by broth microdilution method. In general terms: Broth dilution looks for growth in wells or tubes with falling amounts of substance.
Test [3] relates to Staphylococcus aureus. The experiment in a line: Antibacterial activity against erythromycin-susceptible Staphylococcus aureus ATCC 25923 by broth microdilution method.
Test [4] deals with Streptococcus pneumoniae. Put plainly: Ratio of clarithromycin MIC to compound MIC for erythromycin-resistant Streptococcus pneumoniae A22072 expressing mef gene.
Test [5] deals with Streptococcus pneumoniae. Put plainly: Antibacterial activity against erythromycin-resistant Streptococcus pneumoniae B1 expressing erm gene by broth microdilution method.
In test [6] the test system is Streptococcus pneumoniae. Put plainly: Antibacterial activity against erythromycin-resistant Streptococcus pneumoniae AB11 expressing erm and mef gene by broth microdilution method.
For test [7], the system named is Streptococcus pneumoniae. The experiment in a line: Antibacterial activity against erythromycin-susceptible Streptococcus pneumoniae ATCC 49619 by broth microdilution method.
The test system of test [8] is Streptococcus pneumoniae. The experiment in a line: Ratio of erythromycin MIC to compound MIC for erythromycin-resistant Streptococcus pneumoniae B1 expressing erm gene.
Test [9] relates to Streptococcus pneumoniae. Put plainly: Ratio of azithromycin MIC to compound MIC for erythromycin-resistant Streptococcus pneumoniae B1 expressing erm gene.
Test [10] concerns Streptococcus pneumoniae. Put plainly: Ratio of clarithromycin MIC to compound MIC for erythromycin-resistant Streptococcus pneumoniae B1 expressing erm gene.
Test [11] has as its system Staphylococcus aureus. Put plainly: Ratio of clarithromycin MIC to compound MIC for erythromycin-susceptible Staphylococcus aureus ATCC 25923.
The test system of test [12] is Streptococcus pneumoniae. The experiment in a line: Ratio of clarithromycin MIC to compound MIC for erythromycin-susceptible Streptococcus pneumoniae ATCC 49619.

What is called MIC is the smallest concentration in the dilution series that meets the test's criterion for growth inhibition. Consider `CC[C@H]1OC(=O)[C@H](C)[C@@H](O[C@H]2C[C@@](C)(OC)[C@@H](OC(=O)NNC(=O)c3ccc4[nH]c(-c5ccc([N+](=O)[O-])cc5)nc4c3)[C@H](C)O2)[C@H](C)[C@@H](O[C@@H]2O[C@H](C)C[C@H](N(C)C)[C@H]2O)[C@](C)(OC)C[C@@H](C)C(=O)[C@H](C)[C@@H](O)[C@]1(C)O`, for which the Ratio is given as 267 in the test with Streptococcus pneumoniae [1] and 133 in the test with Streptococcus pneumoniae [4]. Further, the minimal inhibitory concentration (MIC) in the test on Streptococcus pneumoniae [2] came out at 0.03 µg/mL (≈ 0.028 µM); against Staphylococcus aureus [3], 1 µg/mL (≈ 0.934 µM); against Streptococcus pneumoniae [5] it was 16 µg/mL (≈ 14.9 µM); in the test with Streptococcus pneumoniae [6], 16 µg/mL (≈ 14.9 µM); in the test with Streptococcus pneumoniae [7] it was 0.25 µg/mL (≈ 0.233 µM).

In the case of `CC[C@H]1OC(=O)[C@H](C)[C@@H](O[C@H]2C[C@@](C)(OC)[C@@H](OC(=O)NNC(=O)c3ccc4[nH]c(-c5ccc(C)cc5)nc4c3)[C@H](C)O2)[C@H](C)[C@@H](O[C@@H]2O[C@H](C)C[C@H](N(C)C)[C@H]2O)[C@](C)(OC)C[C@@H](C)C(=O)[C@H](C)[C@@H](O)[C@]1(C)O`, the Ratio worked out at 267 with Streptococcus pneumoniae [1]; 133 with Streptococcus pneumoniae [4]; 64 with Streptococcus pneumoniae [8]; 64 in the test with Streptococcus pneumoniae [9]; 64 in the test with Streptococcus pneumoniae [10]. The minimum inhibitory concentration (MIC) in the test with Streptococcus pneumoniae [2] amounted to 0.03 µg/mL (≈ 0.0288 µM); against Staphylococcus aureus [3], 0.25 µg/mL (≈ 0.24 µM); against Streptococcus pneumoniae [5] it was 2 µg/mL (≈ 1.92 µM); in the test on Streptococcus pneumoniae [6] it was 16 µg/mL (≈ 15.4 µM); in the test with Streptococcus pneumoniae [7], 0.12 µg/mL (≈ 0.115 µM).

Take `CC[C@H]1OC(=O)[C@H](C)[C@@H](O[C@H]2C[C@@](C)(OC)[C@@H](OC(=O)NNC(=O)c3ccc4[nH]c(-c5ccccc5OC)nc4c3)[C@H](C)O2)[C@H](C)[C@@H](O[C@@H]2O[C@H](C)C[C@H](N(C)C)[C@H]2O)[C@](C)(OC)C[C@@H](C)C(=O)[C@H](C)[C@@H](O)[C@]1(C)O`: the Ratio in the test on Streptococcus pneumoniae [1] was found to be 267; in the test on Staphylococcus aureus [11], 4; in the test on Streptococcus pneumoniae [4] it was 133; with Streptococcus pneumoniae [8], 64; in the test on Streptococcus pneumoniae [9], 64; with Streptococcus pneumoniae [10], 64. The Ratio with Streptococcus pneumoniae [12] was 4. In addition, the minimal inhibitory concentration (MIC) against Streptococcus pneumoniae [2] is 0.03 µg/mL (≈ 0.0284 µM); in the test on Staphylococcus aureus [3] it was 0.03 µg/mL (≈ 0.0284 µM); against Streptococcus pneumoniae [5], 2 µg/mL (≈ 1.89 µM); in the test with Streptococcus pneumoniae [6], 16 µg/mL (≈ 15.1 µM); against Streptococcus pneumoniae [7] it was 0.03 µg/mL (≈ 0.0284 µM).
